Measured values: patent US20260317347A1, “MACROCYCLIC COMPOUNDS AND THERAPEUTIC USES THEREOF” (SUNRISE ONCOLOGY (HONG KONG) LIMITED, priority 2023, published 2026)
“Also recorded” adds a separate entry of the source.

Key:
[1] = target: HRAS WT GTP + RAF1 + CYPA (Homo sapiens, UniProt P01112+P62937); assay: Ras: RAF1 HTRF Assay (RAS-GTP & Raf disruption); assay type: biochemical; settings: 1 h incubation, room temperature
Method: (§1) This example is to verify the binding between RAS protein and its interacting protein (SOS1 or RAF1). When RAS exists with SOS1 or RAF, the two interact to make the energy donor and receptor bound to it close enough, and then when the donor is excited by an external light source, energy resonance transfer occurs, thereby exciting the receptor and emitting a specific wavelength of emitted light, the FRET signal is detected.
(§2) Specific experimental methods: 20 nM purified RAS protein (e.g. KRAS-G12D, G12V, G12C, WT; NRAS-WT) was incubated with the drug to be screened (the drug was diluted in a 3-fold gradient to a final concentration of 1000 nM) at room temperature for 1 h. Subsequently, 30 nM purified SOS1-Cat was added and incubated at room temperature for 0.5-1 h. After adding the detection antibody (PerkinElmer, Cisbio, HTRF antibody), the value was measured according to the manufacturer's instructions.

[2] = target: KRAS G12D GTP + RAF1 + CYPA (Homo sapiens, UniProt P01116+P62937, G12D); assay: Ras: RAF1 HTRF Assay (RAS-GTP & Raf disruption); assay type: biochemical; settings: 1 h incubation, room temperature
Method: as §1, §2

[3] = target: KRAS G12R GTP + RAF1 + CYPA (Homo sapiens, UniProt P01116+P62937, G12R); assay: Ras: RAF1 HTRF Assay (RAS-GTP & Raf disruption); assay type: biochemical; settings: 1 h incubation, room temperature
Method: as §1, §2

[4] = target: KRAS G12V GTP + RAF1 + CYPA (Homo sapiens, UniProt P01116+P62937, G12V); assay: Ras: RAF1 HTRF Assay (RAS-GTP & Raf disruption); assay type: biochemical; settings: 1 h incubation, room temperature
Method: as §1, §2

[5] = target: KRAS G12C GTP + RAF1 + CYPA (Homo sapiens, UniProt P01116+P62937, G12C); assay: Ras: RAF1 HTRF Assay (RAS-GTP & Raf disruption); assay type: biochemical; settings: 1 h incubation, room temperature
Method: as §1, §2

[6] = target: KRAS G12S GTP + RAF1 + CYPA (Homo sapiens, UniProt P01116+P62937, G12S); assay: Ras: RAF1 HTRF Assay (RAS-GTP & Raf disruption); assay type: biochemical; settings: 1 h incubation, room temperature
Method: as §1
as §2, with “Subsequently, 30 nM purified SOS1-Cat was added and incubated at room temperature for 0.5-1 h.” left out

[7] = system: RAS dependent cells; assay: Cell Viability Assay (MTS), overall statement; assay type: cell-based; settings: FIG. 2
From the text: (§3) Selective screening using RAS-driven and RAS-non-driven cells: (1) RAS-driven cells, including cells with persistent RAS activation due to RAS mutations and upstream EGFR activation. Cells that are continuously activated due to RAS mutations, such as KRAS G12D (AsPC-1, HPAC, etc.) mutant cells, KRAS G12C (NCI-H358, MIAPaCa-2, etc.) KRAS G13D (LOVO, HCT15, etc.) mutant cells, etc. Cells with continuous activation of RAS due to EGFR mutations, such as EGFREx19del (PC-9, etc.) mutant cells, EGFRT790M/L858R (NCI-H1975, etc.) mutant cells, etc.; (2) Non-RAS driven cells, including BRAFV600E (A375, SK)-MEL-3, etc.) mutant cells, RASWT (BxPC-3, etc.) cells, etc.
(§4) Specific experimental methods: The above cells were seeded in a 96-well plate at a density of 1000-10000 per well. Drugs were diluted in DMSO to make a 10 mM stock solution. Subsequently, the drug was diluted in a 3-fold gradient to a final concentration of 1000 nM. The cells were treated with the drug for 5 days. Cell viability was then detected by the MTS method.

[8] = target: KRAS Q61H GTP + RAF1 + CYPA (Homo sapiens, UniProt P01116+P62937, Q61H); assay: Ras: RAF1 HTRF Assay (RAS-GTP & Raf disruption); assay type: biochemical; settings: 1 h incubation, room temperature
[9] = system: RAF1 with active KRAS mutant protein or HRAS WT protein; assay: Ras: RAF1 HTRF Assay, overall statement; assay type: biochemical; settings: in words; FIG. 1
[10] = system: HepG2 (NRAS Q61L) cells; assay: Cell Viability Assay (MTS); assay type: cell-based; settings: 5 days, FIG. 2
From the text: as §3, §4

[11] = system: LOVO (KRAS G13D) cells; assay: Cell Viability Assay (MTS); assay type: cell-based; settings: 5 days, FIG. 2
From the text: as §3, §4

[12] = system: A375 (BRAF V600E) cells; assay: Cell Viability Assay (MTS); assay type: cell-based; settings: RAS-independent, 5 days, FIG. 2
From the text: as §3, §4

[13] = system: SW620 (KRAS G12V) cells; assay: Cell Viability Assay (MTS); assay type: cell-based; settings: 5 days, FIG. 2
From the text: as §3, §4

[14] = system: AGS (KRAS G12D) cells; assay: Cell Viability Assay (MTS); assay type: cell-based; settings: 5 days, FIG. 2
From the text: as §3, §4

[15] = system: NCI-H1975 (EGFR T790M/L858R) cells; assay: Cell Viability Assay (MTS); assay type: cell-based; settings: 5 days, FIG. 2
From the text: as §3, §4

Chain of KRAS G12C GTP + RAF1 + CYPA (P01116 1-188 isoform P01116-2 G12C): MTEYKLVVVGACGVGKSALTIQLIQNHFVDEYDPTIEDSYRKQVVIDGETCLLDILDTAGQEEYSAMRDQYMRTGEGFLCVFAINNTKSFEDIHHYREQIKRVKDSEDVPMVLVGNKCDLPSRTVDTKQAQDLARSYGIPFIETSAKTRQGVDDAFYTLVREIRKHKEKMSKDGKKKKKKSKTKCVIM
Chain of KRAS G12C GTP + RAF1 + CYPA (P62937 whole entry): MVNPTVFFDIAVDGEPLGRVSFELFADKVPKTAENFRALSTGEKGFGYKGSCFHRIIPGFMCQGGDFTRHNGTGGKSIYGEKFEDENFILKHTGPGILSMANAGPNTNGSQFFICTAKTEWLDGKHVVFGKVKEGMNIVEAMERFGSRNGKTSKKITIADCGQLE
Chain of KRAS G12R GTP + RAF1 + CYPA (P01116 1-188 isoform P01116-2 G12R): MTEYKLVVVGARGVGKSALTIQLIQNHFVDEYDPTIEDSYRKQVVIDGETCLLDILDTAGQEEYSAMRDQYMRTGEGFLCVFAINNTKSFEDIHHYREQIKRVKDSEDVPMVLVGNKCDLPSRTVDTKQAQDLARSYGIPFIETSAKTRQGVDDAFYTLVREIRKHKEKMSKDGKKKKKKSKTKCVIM
Chain of KRAS G12R GTP + RAF1 + CYPA (P62937 whole entry): as the sequence (P62937 whole entry) above
Chain of KRAS G12D GTP + RAF1 + CYPA (P01116 1-188 isoform P01116-2 G12D): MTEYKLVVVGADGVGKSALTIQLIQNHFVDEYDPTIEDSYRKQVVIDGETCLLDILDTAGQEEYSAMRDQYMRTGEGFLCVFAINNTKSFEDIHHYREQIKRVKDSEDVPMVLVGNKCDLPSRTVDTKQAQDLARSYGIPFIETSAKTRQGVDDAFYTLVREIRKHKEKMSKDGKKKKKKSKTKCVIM
Chain of KRAS G12D GTP + RAF1 + CYPA (P62937 whole entry): as the sequence (P62937 whole entry) above
Chain of KRAS Q61H GTP + RAF1 + CYPA (P01116 1-188 isoform P01116-2 Q61H): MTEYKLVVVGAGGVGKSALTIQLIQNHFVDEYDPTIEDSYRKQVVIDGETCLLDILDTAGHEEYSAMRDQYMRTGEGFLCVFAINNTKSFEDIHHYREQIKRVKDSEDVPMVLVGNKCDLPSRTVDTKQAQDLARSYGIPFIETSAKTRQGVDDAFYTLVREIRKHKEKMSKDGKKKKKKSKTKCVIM
Chain of KRAS Q61H GTP + RAF1 + CYPA (P62937 whole entry): as the sequence (P62937 whole entry) above
Chain of KRAS G12V GTP + RAF1 + CYPA (P01116 1-188 isoform P01116-2 G12V): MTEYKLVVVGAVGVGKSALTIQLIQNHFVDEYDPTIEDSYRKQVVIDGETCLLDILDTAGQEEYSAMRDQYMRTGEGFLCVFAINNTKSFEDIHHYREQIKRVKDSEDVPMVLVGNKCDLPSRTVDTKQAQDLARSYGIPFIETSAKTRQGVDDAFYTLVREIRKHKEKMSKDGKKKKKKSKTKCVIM
Chain of KRAS G12V GTP + RAF1 + CYPA (P62937 whole entry): as the sequence (P62937 whole entry) above
Chain of HRAS WT GTP + RAF1 + CYPA (P01112 whole entry): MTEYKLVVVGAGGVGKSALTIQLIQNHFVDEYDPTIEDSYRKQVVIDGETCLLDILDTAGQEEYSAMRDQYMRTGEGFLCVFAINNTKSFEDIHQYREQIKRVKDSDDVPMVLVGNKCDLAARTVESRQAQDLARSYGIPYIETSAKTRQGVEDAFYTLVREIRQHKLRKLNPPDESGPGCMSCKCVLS
Chain of HRAS WT GTP + RAF1 + CYPA (P62937 whole entry): as the sequence (P62937 whole entry) above
Chain of KRAS G12S GTP + RAF1 + CYPA (P01116 1-188 isoform P01116-2 G12S): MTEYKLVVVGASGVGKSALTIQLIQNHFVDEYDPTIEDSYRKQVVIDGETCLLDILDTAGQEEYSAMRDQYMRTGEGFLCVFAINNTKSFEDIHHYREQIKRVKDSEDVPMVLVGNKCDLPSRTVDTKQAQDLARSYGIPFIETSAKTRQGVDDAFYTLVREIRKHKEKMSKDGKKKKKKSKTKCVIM
Chain of KRAS G12S GTP + RAF1 + CYPA (P62937 whole entry): as the sequence (P62937 whole entry) above

SMILES: CCn1c(-c2cc(P(C)(C)=O)ccc2[C@H](C)OC)c2c3cc(ccc31)-c1cc(O)cc(c1)C[C@H](NC(=O)[C@H](C(C)C)N(C)C(=O)[C@@H]1OCC[C@@H]1c1ccccc1)C(=O)N1CCC[C@H](N1)C(=O)OCC(C)(C)C2 [Example 2, (2R,3R)—N-((2S)-1-(((6^3S,4S)-1^2-(5-(dimethylphosphoryl)-2-((S)-1-methoxyethyl)phenyl)-1^1-ethyl-2^5-hydroxy-10,10-dimethyl-5,7-dioxo-6^1,6^2,6^3,6^4,6^5,6^6-hexahydro-1^1H-8-oxa-1(5,3)-indola-6(1,3)-pyridazina-2(1,3)-benzenacycloundecaphane-4-yl)amino)-3-methyl-1-oxobutan-2-yl)-N-methyl-3-phenyltetrahydrofuran-2-carboxamide]
- IC50 [1]: 467.8 ± 4.6 nM
- IC50 [2]: 55.9 ± 8.92 nM
- IC50 [3]: 729 ± 106 nM
- IC50 [4]: 165 ± 7.92 nM
- IC50 [5]: 15.8 ± 3.97 nM
- IC50 [6]: 19.6 ± 1.03 nM
- inhibition of cell viability [7]: potently inhibited
- IC50 [8]: 31.24 ± 0.3 nM
- inhibition of the interaction of RAF1 with active KRAS mutant protein or HRAS WT protein [9]: potently inhibited; also recorded: significantly inhibited
- inhibition of cell viability [10]: significantly inhibited
- inhibition of cell viability [11]: significantly inhibited
- inhibition of cell viability [12]: relative insensitive
- inhibition of cell viability [13]: significantly inhibited
- inhibition of cell viability [14]: significantly inhibited
- inhibition of cell viability [15]: significantly inhibited
